Measured values taken from publication PMC10001950 (International Journal of Molecular Sciences, 2023).
Read-outs that look alike come from different tables or passages of the source.

Experiments:
[1] = target: T1, BoNT/A LC (Clostridium botulinum, UniProt P0DPI0); experiment: biochemical; assay type: biochemical
[2] = target: T1, BoNT/A LC; experiment: biochemical; details: read-out: inhibited BoNT/A LC activity
[3] = test system: BoNT/A1 cleavage of SNAP-25 in hiPSC-derived motor neurons; experiment: cells; assay type: cell-based, human
[4] = target: BoNT/A LC WT (Clostridium botulinum, UniProt P0DPI0); assay type: binding
[5] = target: T1, BoNT/A LC; experiment: biochemical

T1 sequence (P0DPI0 2-448 limits assumed): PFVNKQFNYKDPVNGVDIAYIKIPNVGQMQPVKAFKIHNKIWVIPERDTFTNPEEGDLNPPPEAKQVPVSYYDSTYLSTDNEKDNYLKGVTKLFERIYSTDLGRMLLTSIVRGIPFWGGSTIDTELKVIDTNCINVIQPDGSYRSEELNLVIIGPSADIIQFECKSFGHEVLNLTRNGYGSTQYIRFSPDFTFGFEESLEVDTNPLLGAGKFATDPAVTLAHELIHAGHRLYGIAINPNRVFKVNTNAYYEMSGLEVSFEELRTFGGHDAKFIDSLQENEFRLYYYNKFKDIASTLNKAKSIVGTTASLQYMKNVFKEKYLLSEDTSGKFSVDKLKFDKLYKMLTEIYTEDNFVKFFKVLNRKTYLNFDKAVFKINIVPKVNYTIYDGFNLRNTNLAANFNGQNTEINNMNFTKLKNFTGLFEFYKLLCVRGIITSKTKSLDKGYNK
Chain of BoNT/A LC WT (P0DPI0 2-448 limits assumed): as above

SMILES	IC50 [1]	inhibition of SNAP-25 cleavage (in words) [3]	covalent adduct formation by HRMS (in words) [4]	protection of SNAP-25 (in words) [3]	further results
O=C(O)C1CNCCN(Cc2cc(=O)n3cccc(O)c3n2)C1 (centres unmarked) [Compound 1]	7400 ± 500 nM	–	–	–	inhibition at 40 µM [2]: > 90%
O=c1cc(CNCc2ccccc2)nc2c(O)cccn12 [Compound 2, 2-((Benzylamino)methyl)-9-hydroxy-4H-pyrido [1,2-a]pyrimidin-4-one]	900 ± 200 nM	neither 2 nor 18 inhibited the cleavage of SNAP-25	Neither of the reversible compounds 2 and 27 showed any change in mass	–	fold more potent than initial lead 1 [1]: approximately seven-fold
O=c1cc(CNCc2cccc(Cl)c2)nc2c(O)cccn12 [Compound 18, 2-(((3-Chlorobenzyl)amino)methyl)-9-hydroxy-4H-pyrido [1,2-a]pyrimidin-4-one]	1700 ± 300 nM	neither 2 nor 18 inhibited the cleavage of SNAP-25	–	–	–
O=c1cc(CNCc2ccc(-c3ccccc3)cc2)nc2c(O)cccn12 [Compound 27, 2-((([1,1′-biphenyl]-4-ylmethyl)amino)methyl)-9-hydroxy-4H-pyrido [1,2-a]pyrimidin-4-one]	300 ± 100 nM	–	Neither of the reversible compounds 2 and 27 showed any change in mass	–	IC50 ([3]; Homo sapiens, Neuron, 0.5 h): 13000 nM; Ki [1]: 150 nM; potency compared to 2 (in words) [1]: significantly increased inhibitory potency
O=c1cc(COCc2cccc(F)c2)nc2c(O)cccn12 [Compound 32, 2-(((3-Fluorobenzyl)oxy)methyl)-9-hydroxy-4H-pyrido [1,2-a]pyrimidin-4-one]	11000 ± 1000 nM	–	–	nearly complete protection of SNAP-25	less potent than 2 in the enzyme assay [1]: ~10 fold
O=c1cc(COCc2cccc(Cl)c2)nc2c(O)cccn12 [Compound 35, 2-(((3-Chlorobenzyl)oxy)methyl)-9-hydroxy-4H-pyrido [1,2-a]pyrimidin-4-one]	7500 ± 500 nM	did not have any apparent effect on SNAP-25 cleavage	–	–	–
O=c1cc(CN2CCc3cc(Cl)ccc32)nc2c(O)cccn12 [Compound 47, 2-((5-Chloroindolin-1-yl)methyl)-9-hydroxy-4H-pyrido [1,2-a]pyrimidin-4-one]	900 ± 600 nM	–	–	protect against SNAP-25 cleavage	–
O=C(O)c1ccc2c(c1)N(Cc1cc(=O)n3cccc(O)c3n1)CC2 [Compound 54, 1-((9-Hydroxy-4-oxo-4H-pyrido [1,2-a]pyrimidin-2-yl)methyl)indoline-6-carboxylic acid]	1200 ± 100 nM	–	–	protect against SNAP-25 cleavage	–
CS(=O)(=O)SCCCCCc1ccn2c(=O)cc(CNCc3ccc(-c4ccccc4)cc3)nc2c1O [Compound 82, S-(6-(2-((([1,1′-biphenyl]-4-ylmethyl)amino)methyl)-9-hydroxy-4-oxo-4H-pyrido [1,2-a]pyrimidin-8-yl)pentyl) methanesulfonothioate]	–	–	an increase in mass matching two covalent adducts	–	Ki [5]: 1870 ± 110 nM; kinact [5]: 0.0024 ± 0.0002 s⁻¹; kinact/KI [5]: 1260 ± 130 M⁻¹ s⁻¹
